In one experiment the target is T1, human A2A AdoR (Homo sapiens, UniProt P29274).
T1 construct: purchased PerkinElmer RBHA2AM400UA
Kind of experiment: Adenosine receptor binding assay, A2A ([3H]-CGS-21680). To be noted: membranes of HEK-293 cells expressing human A2A AdoR; read-out: hA2A IC50. Here is the method: (§1) Membranes prepared from CHO-K1 cells stably expressing Human AiAdoR (ES-010-M400UA), HEK-293 cells stably expressing human A2A AdoR (RBHA2AM400UA), HEK-293 cells stably expressing human A2B AdoR (ES-013-M400UA) and CHO-K1 cells stably expressing Human A3 AdoR (ES-012-M400UA) were purchased from PerkinElmer (Waltham, Mass., USA) and stored at −80° C. until use. Binding assays are performed using the radioligands. The final concentrations are as follows: [3H]-DPCPX (PerkinElmer, NET974001MC) at 1 nM for A1AdoR; [^3H]-CGS-21680 (PerkinElmer, NET1021250UC) at 6 nM for A2AAdoR, [3H]-DPCPX (PerkinElmer, NET974001MC) at 8 nM for A2BAdoR; [^3H]-HEMADO (ARC, Cat: ART1456) at 1 nM for A3AdoR. Testing compounds are diluted with DMSO to make 8-point 4-fold serial dilution. Nonspecific binding (Low control: LC) and total binding (High control: HC) are determined in the presence or absence of saturated cold ligand. Specific binding is calculated by subtracting nonspecific binding from total binding. All assays are performed in a final volume of 200 μl containing 1 μl of the test compound in DMSO, 100 μl of membrane preparation, and 99 μl of the radioligand in assay buffer (A1AdoR: 25 mM HEPES pH 7.4, 5 mM MgCl2, 1 mM CaCl2), 100 mM NaCl; A2AAdoR: 50 mM Tris HCl pH 7.4, 10 mM MgCl2, 1 mM EDTA; A2BAdoR: 50 mM HEPES pH 7.0, 5 mM MgCl2, 1 mM EDTA; A3AdoR: 25 HEPES pH 7.4, 10 mM MgCl2, 1 mM CaCl2), 0.5% BSA). The incubation is performed at room temperature with shaking at 300 rpm for 1 hour for A1AdoR, A2BAdoR and A3AdoR and 2 hours for A2AAdoR. After the incubation, the assay mixture is filtered through 96 GF/C filter plates (Perkin Elmer #6005174) using Perkin Elmer Filtermate Harvester, and then washed four times with ice-cold washing buffer (A1AdoR: 25 mM HEPES pH 7.4, 5 mM MgCl2, 1 mM CaCl2), 100 mM NaCl; A2AAdoR: 50 mM Tris HCl pH 7.4, 154 mM NaCl; A2BAdoR: 50 mM HEPES pH 6.5, 5 mM MgCl2, 1 mM EDTA, 0.2% BSA; A3AdoR: 50 mM Tris HCl pH 7.4). The filters are dried for 1 hour at 50° C. and [^3H] trapped on filter counted for radioactivity in Perkin Elmer Microscint 20 cocktail (#6013329) using Perkin Elmer MicroBeta2 Reader. The results are expressed as a percent inhibition of the control radioligand specific binding calculated using the following equation: % Inhibition=(1−(Assay well-Average_LC)/(Average_HC−Average_LC))×100%. Data are analyzed and IC50 is calculated using GraphPad Prism 5 and the model “log(inhibitor) vs. response—Variable slope”. The binding affinity of the compounds is determined by using the Cheng and Prusoff equation Ki=IC50/(1+[radioligand]/Kd).

Another experiment deals with T2, A1AdoR (Homo sapiens, UniProt P30542).
T2 construct: purchased PerkinElmer ES-010-M400UA
T2 sequence (P30542 1-326): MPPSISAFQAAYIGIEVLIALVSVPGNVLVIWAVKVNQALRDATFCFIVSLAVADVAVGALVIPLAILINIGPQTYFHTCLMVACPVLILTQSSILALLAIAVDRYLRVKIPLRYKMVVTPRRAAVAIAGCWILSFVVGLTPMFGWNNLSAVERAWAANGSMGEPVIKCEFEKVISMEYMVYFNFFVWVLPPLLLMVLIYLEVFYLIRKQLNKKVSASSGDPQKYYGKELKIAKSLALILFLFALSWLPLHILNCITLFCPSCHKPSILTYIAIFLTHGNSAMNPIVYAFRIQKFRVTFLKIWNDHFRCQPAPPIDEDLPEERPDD
Kind of experiment: Adenosine receptor binding assay, A1 ([3H]-DPCPX). The following applies: ratio A1 vs A2A binding. The method, then:
as §1

The record followed here is US20230024108A1, “ADENOSINE A2A RECEPTOR ANTAGONISTS” (Teon Therapeutics, Inc., priority 2019, published 2023).

In general, IC50 refers to the concentration at which inhibition is half-maximal.

T1 sequence (P29274 whole entry): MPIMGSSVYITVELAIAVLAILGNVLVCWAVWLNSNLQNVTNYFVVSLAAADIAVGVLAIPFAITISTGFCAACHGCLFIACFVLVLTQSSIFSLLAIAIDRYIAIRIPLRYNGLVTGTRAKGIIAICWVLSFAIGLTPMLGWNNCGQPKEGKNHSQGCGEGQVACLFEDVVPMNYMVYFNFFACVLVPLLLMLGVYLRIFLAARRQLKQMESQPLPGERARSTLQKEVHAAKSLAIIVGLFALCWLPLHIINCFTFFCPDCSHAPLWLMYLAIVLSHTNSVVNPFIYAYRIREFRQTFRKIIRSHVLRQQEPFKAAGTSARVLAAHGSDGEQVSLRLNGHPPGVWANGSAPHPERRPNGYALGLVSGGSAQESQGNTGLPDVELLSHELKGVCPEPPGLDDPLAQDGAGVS

On to `CC#Cc1nc2c3ncn(CCN4CCc5ncc(C6COC6)cc5C4)c3nc(N)n2n1`, for which the IC50 at human A2A AdoR lay in the range of 20 to 100 nM. On A1AdoR, the “A1/A2A Selectivity” value is given as “b (greater than 100 but less than or equal to 1000)”.

Regarding `CC#Cc1nc2c3ncn(CCN4CCN(c5cc(-n6cccn6)ccc5F)CC4)c3nc(N)n2n1`, the IC50 at human A2A AdoR was not above 20 nM. Besides, the “A1/A2A Selectivity” value at A1AdoR is given as “a (greater than 1000)”.

Take `CC#Cc1nc2c3cc(C#N)n(CCN4CCN(c5ccc6onc(C)c6c5F)CC4)c3nc(N)n2n1`: the IC50 on human A2A AdoR is not above 20 nM. Moreover, the “A1/A2A Selectivity” value on A1AdoR is “a (greater than 1000)”.

In the case of `Cc1noc2cc(F)c(N3CCN(CCn4c(C(=O)O)c(C)c5c4nc(N)n4nc(-c6ccccn6)nc54)CC3)cc12`, the IC50 on human A2A AdoR is not above 20 nM. Moreover, the “A1/A2A Selectivity” value on A1AdoR is recorded as “b (greater than 100 but less than or equal to 1000)”.

Take `CNC(=O)c1c(Cl)c2c(nc(N)n3nc(-c4ccccn4)nc23)n1CCN1CCN(c2cc(-c3ncco3)ccc2F)CC1`: the IC50 at human A2A AdoR was not above 20 nM. Further, the “A1/A2A Selectivity” value at A1AdoR is “a (greater than 1000)”.

As to `NC(=O)c1c(Cl)c2c(nc(N)n3nc(-c4ccccn4)nc23)n1CCN1CCN(c2ccc(F)cc2F)CC1`, the IC50 on human A2A AdoR is not above 20 nM. Also, at A1AdoR, the “A1/A2A Selectivity” value is “c (greater than 0 but less than or equal to 100)”.

Consider `Cc1noc2cc(F)c(N3CCCN(CCn4c(C(N)=O)c(Cl)c5c4nc(N)n4nc(-c6ccccn6)nc54)CC3)cc12`, for which the IC50 at human A2A AdoR is not above 20 nM. Besides, the “A1/A2A Selectivity” value on A1AdoR is “b (greater than 100 but less than or equal to 1000)”.

`Nc1nc2c(c(Cl)c(C(=O)NC3CC3)n2CCN2CCN(c3cc(-c4ncco4)ccc3F)CC2)c2nc(-c3ccccn3)nn12`: at human A2A AdoR, the IC50 is not above 20 nM. Further, the “A1/A2A Selectivity” value at A1AdoR is recorded as “a (greater than 1000)”.

For `Cc1c(C(=O)O)n(CCN2CCN(c3ccncc3)CC2)c2nc(N)n3nc(-c4ccccn4)nc3c12`, the IC50 at human A2A AdoR fell in the range of 20 to 100 nM. Moreover, on A1AdoR, the “A1/A2A Selectivity” value is “c (greater than 0 but less than or equal to 100)”.

Consider `CC#Cc1nc2c3ncn(CCN4CCc5ncc(-c6nccs6)cc5C4)c3nc(N)n2n1`, for which the IC50 at human A2A AdoR is not above 20 nM. For the same molecule, the “A1/A2A Selectivity” value at A1AdoR is reported as “c (greater than 0 but less than or equal to 100)”.

As for `Nc1nc2c(ncn2CCN2CCc3ncc(-c4nccs4)cc3C2)c2nc(-c3ccccn3)nn12`, the IC50 on human A2A AdoR was not above 20 nM. In addition, the “A1/A2A Selectivity” value on A1AdoR is given as “c (greater than 0 but less than or equal to 100)”.

Turning to `CC#Cc1nc2c3ncn(CCN4CCN(c5ccc(OC(C)(C)C(=O)OC)cc5F)CC4)c3nc(N)n2n1`, the 50% inhibitory concentration (IC50) at human A2A AdoR was not above 20 nM. Besides, on A1AdoR, the “A1/A2A Selectivity” value was “a (greater than 1000)”.

“2-(4-(4-(2-(5-amino-8-(methoxycarbonyl)-9-methyl-2-(pyridin-2-yl)-7H-pyrrolo[3,2-e][1,2,4]triazolo[1,5-c]pyrimidin-7-yl)ethyl)piperazin-1-yl)phenoxy)acetic acid”: on human A2A AdoR, the IC50 is not above 20 nM. Further, the “A1/A2A Selectivity” value on A1AdoR is on record as “b (greater than 100 but less than or equal to 1000)”.

Turning to `CC#Cc1nc2c3ncn(CCN4CCN(c5ccc(OC(C)(C)C(=O)O)cc5)CC4)c3nc(N)n2n1` [2-(4-(4-(2-(5-amino-8-(prop-1-yn-1-yl)-3H-[1,2,4]triazolo[5,1-i]purin-3-yl)ethyl)piperazin-1-yl)phenoxy)-2-methylpropanoic acid], on human A2A AdoR, the IC50 was in the range of 20 to 100 nM. Also, the “A1/A2A Selectivity” value at A1AdoR is “b (greater than 100 but less than or equal to 1000)”.

With `CC(C)(Oc1ccc(N2CCN(CCn3cnc4c3nc(N)n3nc(-c5ccccn5)nc43)CC2)c(F)c1)C(=O)O` [2-(4-(4-(2-(5-amino-8-(pyridin-2-yl)-3H-[1,2,4]triazolo[5,1-i]purin-3-yl)ethyl)piperazin-1-yl)-3-fluorophenoxy)-2-methylpropanoic acid], the IC50 at human A2A AdoR was not above 20 nM. At A1AdoR, the “A1/A2A Selectivity” value was “b (greater than 100 but less than or equal to 1000)”.

With `NC(=O)c1c(Cl)c2c(nc(N)n3nc(-c4ccccn4)nc23)n1CCN1CCN(c2ccc(OCC(=O)O)cc2)CC1` [2-(4-(4-(2-(5-amino-8-carbamoyl-9-chloro-2-(pyridin-2-yl)-7H-pyrrolo[3,2-e][1,2,4]triazolo[1,5-c]pyrimidin-7-yl)ethyl)piperazin-1-yl)phenoxy)acetic acid], at human A2A AdoR, the half-inhibitory concentration (IC50) is not above 20 nM. Moreover, the “A1/A2A Selectivity” value at A1AdoR is listed as “b (greater than 100 but less than or equal to 1000)”.

With `Nc1nc2c(ncn2CCN2CCc3ncc(C4COC4)cc3C2)c2nc(-c3ccccn3)nn12` [3-(2-(3-(oxetan-3-yl)-7,8-dihydro-1,6-naphthyridin-6(5H)-yl)ethyl)-8-(pyridin-2-yl)-3H-[1,2,4]triazolo[5,1-i]purin-5-amine], the IC50 on human A2A AdoR is 20 to 100 nM. Besides, on A1AdoR, the “A1/A2A Selectivity” value is listed as “c (greater than 0 but less than or equal to 100)”.

Regarding `Nc1nc2c(ncn2CCN2CCN(c3cc(-n4cccn4)ccc3F)CC2)c2nc(-c3ccccn3)nn12` [3-(2-(4-(2-fluoro-5-(1H-pyrazol-1-yl)phenyl)piperazin-1-yl)ethyl)-8-(pyridin-2-yl)-3H-[1,2,4]triazolo[5,1-i]purin-5-amine], the IC50 on human A2A AdoR is not above 20 nM. In addition, the “A1/A2A Selectivity” value at A1AdoR is reported as “b (greater than 100 but less than or equal to 1000)”.

`Nc1nc2c(ncn2CCN2CCN(c3cc(-c4ncco4)ccc3F)CC2)c2nc(-c3ccccn3)nn12` [3-(2-(4-(2-fluoro-5-(oxazol-2-yl)phenyl)piperazin-1-yl)ethyl)-8-(pyridin-2-yl)-3H-[1,2,4]triazolo[5,1-i]purin-5-amine]: on human A2A AdoR, the IC50 is not above 20 nM. At A1AdoR, the “A1/A2A Selectivity” value is on record as “b (greater than 100 but less than or equal to 1000)”.

Turning to `CC#Cc1nc2c3ncn(CCN4CCN(c5cc6c(C)noc6cc5F)CC4)c3nc(N)n2n1` [3-(2-(4-(6-fluoro-3-methylbenzo[d]isoxazol-5-yl)piperazin-1-yl)ethyl)-8-(prop-1-yn-1-yl)-3H-[1,2,4]triazolo[5,1-i]purin-5-amine], at human A2A AdoR, the IC50 was not above 20 nM. Besides, on A1AdoR, the “A1/A2A Selectivity” value is given as “a (greater than 1000)”.

As for `Cc1c(C(N)=O)n(CCN2CCN(c3ccc(F)cc3F)CC2)c2nc(N)n3nc(-c4ccccn4)nc3c12` [5-amino-7-(2-(4-(2,4-difluorophenyl)piperazin-1-yl)ethyl)-9-methyl-2-(pyridin-2-yl)-7H-pyrrolo[3,2-e][1,2,4]triazolo[1,5-c]pyrimidine-8-carboxamide], on human A2A AdoR, the IC50 was not above 20 nM. For the same molecule, at A1AdoR, the “A1/A2A Selectivity” value is recorded as “b (greater than 100 but less than or equal to 1000)”.

Turning to `Cc1c(C(=O)O)n(CCN2CCN(c3ccc(F)cc3F)CC2)c2nc(N)n3nc(-c4ccccn4)nc3c12` [5-amino-7-(2-(4-(2,4-difluorophenyl)piperazin-1-yl)ethyl)-9-methyl-2-(pyridin-2-yl)-7H-pyrrolo[3,2-e][1,2,4]triazolo[1,5-c]pyrimidine-8-carboxylic acid], the IC50 on human A2A AdoR was not above 20 nM. Further, on A1AdoR, the “A1/A2A Selectivity” value is “b (greater than 100 but less than or equal to 1000)”.

Consider `Cc1c(C(=O)O)n(CCN2CCCN(c3cc(-c4ncco4)ccc3F)CC2)c2nc(N)n3nc(-c4ccccn4)nc3c12` [5-amino-7-(2-(4-(2-fluoro-5-(oxazol-2-yl)phenyl)-1,4-diazepan-1-yl)ethyl)-9-methyl-2-(pyridin-2-yl)-7H-pyrrolo[3,2-e][1,2,4]triazolo[1,5-c]pyrimidine-8-carboxylic acid], for which the IC50 at human A2A AdoR was in the range of 20 to 100 nM. Moreover, the “A1/A2A Selectivity” value at A1AdoR is listed as “c (greater than 0 but less than or equal to 100)”.
